Results as given in patent US6960574B2, “Antagonists of RF-amide neuropeptides” (University of Florida, priority 2002, dated 2005).
Square brackets hold non-standard residues; d marks the D form. Peptide text beside a SMILES is read from it. * marks the point of attachment. ξ: configuration not given here. Dansyl = CN(C)c1cccc2c(S(=O)(=O)*)cccc12; ξL = CC(C)CC(N)C(=O)O

These compounds were tested on receptor labeled by the radioiodinated analogue of 1 (4, [125I]-YLFQPQRF-NH2); neuropeptide FF receptor (assay: Competitive radioligand binding against 4 ([125I]Y8F-amide)). Settings: mixture-based positional scanning; difference from averaged radioligand displacement of whole library (0); about 80 a.u. = 10-fold change in Ki.
From the text: Additionally, three-dimensional (3-D) molecular models of the known smaller-size neuropeptide FF antagonists 3 and 3a were constructed and their low-energy conformations were obtained in the AMBER force-field [Weiner, et al., J. Comput. Chem. 1986, 7, […].] by molecular dynamics calculations involving simulated annealing. A semi-empirical quantum chemical method with the PM3 parameterization [Stewart, J. Comput. Chem. 1989, 10, 209-220.] was used for the final geometry optimization. […] At least one of the rings in domain B is aromatic. No similarity between 3 and 3a outside these domains were apparent; therefore, the simultaneous presence of A and B domains in the structure of neuropeptide FF (1) antagonists is critical to the invention. Apparently, structural subunits (domain C) outside domains A and B should function in a cooperative manner in directing the pharmacophores into proper geometric positions when improved binding to the cognate receptor is to be obtained, which is associated with the improvement of the desired pharmacological effect. An approach involving mixture-based synthetic combinatorial libraries and positional scanning [(a) Houghten, et al., J. Med Chem. 1999, 42, 3743-3778.] was adopted in the search for preferred structural motifs in domain C that assist in achieving this objective in this invention. To allow for the use of 3 as a reference in this process, the guadinino group (A) was incorporated as part of an L-2-amino-5-{[amino(imino)methyl]amino}pentanoyl (arginyl, R, Arg) residue and 5-dimethylamino-1-naphthalenesulphonyl (dansyl) was chosen to form B (However, it must be emphasized that both R and dansyl are replaceable with moieties that bestow A and B domain attributes described in the invention).
Upon screening for residues to replace the glutamine of 3, serine (S) was the only building block in this position that increased the displacement of 4 in the radioligand-binding assay. Therefore, motifs present in dansyl-Gly-Ser-Arg-NH2, dansyl-Gly-Gln-Arg-NH2, dansyl-Gln-Ser-Arg-NH2, and dansyl-Gln-Gln-Arg-NH2 were chosen based on their affinity to the cognate receptor for further consideration as primary templates when designing the domain C of the compounds described in the invention herein. […]

| Compound | Relative Binding Index (RBI) |
| --- | --- |
| CN(C)c1cccc2c(S(=O)(=O)N[C@@H](Cc3ccccc3)C(=O)N[C@@H](CCC(=O)O)C(=O)N[C@@H](CCCNC(=N)N)C(N)=O)cccc12 [Dansyl-FER-amide] (Dansyl-Phe-Glu-Arg-NH2) | 9 a.u. |
| CN(C)c1cccc2c(S(=O)(=O)N[C@@H](Cc3ccccc3)C(=O)N[C@@H](Cc3ccccc3)C(=O)N[C@@H](CCCNC(=N)N)C(N)=O)cccc12 [Dansyl-FFR-amide] (Dansyl-Phe-Phe-Arg-NH2) | 8 a.u. |
| CN(C)c1cccc2c(S(=O)(=O)N[C@@H](Cc3ccccc3)C(=O)NCC(=O)N[C@@H](CCCNC(=N)N)C(N)=O)cccc12 [Dansyl-FGR-amide] (Dansyl-Phe-Gly-Arg-NH2) | 15 a.u. |
| CN(C)c1cccc2c(S(=O)(=O)N[C@@H](Cc3ccccc3)C(=O)N[C@@H](Cc3cnc[nH]3)C(=O)N[C@@H](CCCNC(=N)N)C(N)=O)cccc12 [Dansyl-FHR-amide] (Dansyl-Phe-His-Arg-NH2) | 4 a.u. |
| CCC(C)C(NC(=O)C(Cc1ccccc1)NS(=O)(=O)c1cccc2c(N(C)C)cccc12)C(=O)NC(CCCNC(=N)N)C(N)=O (stereo not drawn) [Dansyl-FIR-amide] (Dansyl-Phe-Ile-Arg-NH2; configuration not given here) | 16 a.u. |
| CN(C)c1cccc2c(S(=O)(=O)N[C@@H](Cc3ccccc3)C(=O)N[C@@H](CCCCN)C(=O)N[C@@H](CCCNC(=N)N)C(N)=O)cccc12 [Dansyl-FKR-amide] (Dansyl-Phe-Lys-Arg-NH2) | 7 a.u. |
| CC(C)CC(NC(=O)[C@H](Cc1ccccc1)NS(=O)(=O)c1cccc2c(N(C)C)cccc12)C(=O)N[C@@H](CCCNC(=N)N)C(N)=O (stereo partly drawn) [Dansyl-FLR-amide] (Dansyl-Phe-[ξL]-Arg-NH2) | 1 a.u. |
| CSCC[C@H](NC(=O)[C@H](Cc1ccccc1)NS(=O)(=O)c1cccc2c(N(C)C)cccc12)C(=O)N[C@@H](CCCNC(=N)N)C(N)=O [Dansyl-FMR-amide] (Dansyl-Phe-Met-Arg-NH2) | 9 a.u. |
| CN(C)c1cccc2c(S(=O)(=O)N[C@@H](Cc3ccccc3)C(=O)N[C@@H](CC(N)=O)C(=O)N[C@@H](CCCNC(=N)N)C(N)=O)cccc12 [Dansyl-FNR-amide] (Dansyl-Phe-Asn-Arg-NH2) | 11 a.u. |
| CN(C)c1cccc2c(S(=O)(=O)N[C@@H](Cc3ccccc3)C(=O)N3CCC[C@H]3C(=O)N[C@@H](CCCNC(=N)N)C(N)=O)cccc12 [Dansyl-FPR-amide] | 13 a.u. |
| CN(C)c1cccc2c(S(=O)(=O)N[C@@H](Cc3ccccc3)C(=O)N[C@@H](CCC(N)=O)C(=O)N[C@@H](CCCNC(=N)N)C(N)=O)cccc12 [Dansyl-FQR-amide] (Dansyl-Phe-Gln-Arg-NH2) | 23 a.u. |
| CN(C)c1cccc2c(S(=O)(=O)N[C@@H](Cc3ccccc3)C(=O)N[C@@H](CCCNC(=N)N)C(=O)N[C@@H](CCCNC(=N)N)C(N)=O)cccc12 [Dansyl-FRR-amide] (Dansyl-Phe-Arg-Arg-NH2) | 8 a.u. |
| CN(C)c1cccc2c(S(=O)(=O)N[C@@H](Cc3ccccc3)C(=O)N[C@@H](CO)C(=O)N[C@@H](CCCNC(=N)N)C(N)=O)cccc12 [Dansyl-FSR-amide] (Dansyl-Phe-Ser-Arg-NH2) | 30 a.u. |
| C[C@@H](O)[C@H](NC(=O)[C@H](Cc1ccccc1)NS(=O)(=O)c1cccc2c(N(C)C)cccc12)C(=O)N[C@@H](CCCNC(=N)N)C(N)=O [Dansyl-FTR-amide] (Dansyl-Phe-Thr-Arg-NH2) | 15 a.u. |
| CC(C)[C@H](NC(=O)[C@H](Cc1ccccc1)NS(=O)(=O)c1cccc2c(N(C)C)cccc12)C(=O)N[C@@H](CCCNC(=N)N)C(N)=O [Dansyl-FVR-amide] (Dansyl-Phe-Val-Arg-NH2) | 5 a.u. |
| CN(C)c1cccc2c(S(=O)(=O)N[C@@H](Cc3ccccc3)C(=O)N[C@@H](Cc3c[nH]c4ccccc34)C(=O)N[C@@H](CCCNC(=N)N)C(N)=O)cccc12 [Dansyl-FWR-amide] (Dansyl-Phe-Trp-Arg-NH2) | 18 a.u. |
| CN(C)c1cccc2c(S(=O)(=O)N[C@@H](Cc3ccccc3)C(=O)N[C@@H](Cc3ccc(O)cc3)C(=O)N[C@@H](CCCNC(=N)N)C(N)=O)cccc12 [Dansyl-FYR-amide] (Dansyl-Phe-Tyr-Arg-NH2) | 8 a.u. |
| C[C@H](NC(=O)CNS(=O)(=O)c1cccc2c(N(C)C)cccc12)C(=O)N[C@@H](CCCNC(=N)N)C(N)=O [Dansyl-GAR-amide] (Dansyl-Gly-Ala-Arg-NH2) | −24 a.u. |

| Compound | Relative Binding Index (RBI) |
| --- | --- |
| CN(C)c1cccc2c(S(=O)(=O)NCC(=O)N[C@@H](CC(=O)O)C(=O)N[C@@H](CCCNC(=N)N)C(N)=O)cccc12 [Dansyl-GDR-amide] (Dansyl-Gly-Asp-Arg-NH2) | 7 a.u. |
| CN(C)c1cccc2c(S(=O)(=O)NCC(=O)N[C@@H](CCC(=O)O)C(=O)N[C@@H](CCCNC(=N)N)C(N)=O)cccc12 [Dansyl-GER-amide] (Dansyl-Gly-Glu-Arg-NH2) | 25 a.u. |
| CN(C)c1cccc2c(S(=O)(=O)NCC(=O)N[C@@H](Cc3ccccc3)C(=O)N[C@@H](CCCNC(=N)N)C(N)=O)cccc12 [Dansyl-GFR-amide] (Dansyl-Gly-Phe-Arg-NH2) | 24 a.u. |
| CN(C)c1cccc2c(S(=O)(=O)NCC(=O)NCC(=O)N[C@@H](CCCNC(=N)N)C(N)=O)cccc12 [Dansyl-GGR-amide] | 30 a.u. |
| CN(C)c1cccc2c(S(=O)(=O)NCC(=O)N[C@@H](Cc3c[nH]cn3)C(=O)N[C@@H](CCCNC(=N)N)C(N)=O)cccc12 [Dansyl-GHR-amide] (Dansyl-Gly-His-Arg-NH2) | 19 a.u. |
| CC[C@H](C)[C@H](NC(=O)CNS(=O)(=O)c1cccc2c(N(C)C)cccc12)C(=O)N[C@@H](CCCNC(=N)N)C(N)=O [Dansyl-GIR-amide] (Dansyl-Gly-Ile-Arg-NH2) | 32 a.u. |
| CN(C)c1cccc2c(S(=O)(=O)NCC(=O)N[C@@H](CCCCN)C(=O)N[C@@H](CCCNC(=N)N)C(N)=O)cccc12 [Dansyl-GKR-amide] (Dansyl-Gly-Lys-Arg-NH2) | 23 a.u. |
| CC(C)C[C@H](NC(=O)CNS(=O)(=O)c1cccc2c(N(C)C)cccc12)C(=O)N[C@@H](CCCNC(=N)N)C(N)=O [Dansyl-GLR-amide] (Dansyl-Gly-Leu-Arg-NH2) | 17 a.u. |
| CSCC[C@H](NC(=O)CNS(=O)(=O)c1cccc2c(N(C)C)cccc12)C(=O)N[C@@H](CCCNC(=N)N)C(N)=O [Dansyl-GMR-amide] (Dansyl-Gly-Met-Arg-NH2) | 25 a.u. |
| CN(C)c1cccc2c(S(=O)(=O)NCC(=O)N[C@@H](CC(N)=O)C(=O)N[C@@H](CCCNC(=N)N)C(N)=O)cccc12 [Dansyl-GNR-amide] (Dansyl-Gly-Asn-Arg-NH2) | 26 a.u. |
| CN(C)c1cccc2c(S(=O)(=O)NCC(=O)N3CCC[C@H]3C(=O)N[C@@H](CCCNC(=N)N)C(N)=O)cccc12 [Dansyl-GPR-amide] (Dansyl-Gly-Pro-Arg-NH2) | 28 a.u. |
| CN(C)c1cccc2c(S(=O)(=O)NCC(=O)N[C@@H](CCC(N)=O)C(=O)N[C@@H](CCCNC(=N)N)C(N)=O)cccc12 [Dansyl-GQR-amide, dansyl-Gly-Gln-Arg-NH2] (Dansyl-Gly-Gln-Arg-NH2) | 39 a.u. |
| CN(C)c1cccc2c(S(=O)(=O)NCC(=O)N[C@@H](CCCNC(=N)N)C(=O)N[C@@H](CCCNC(=N)N)C(N)=O)cccc12 [Dansyl-GRR-amide] | 24 a.u. |
| C[C@@H](O)[C@H](NC(=O)CNS(=O)(=O)c1cccc2c(N(C)C)cccc12)C(=O)N[C@@H](CCCNC(=N)N)C(N)=O [Dansyl-GTR-amide] (Dansyl-Gly-Thr-Arg-NH2) | 31 a.u. |
| CC(C)[C@H](NC(=O)CNS(=O)(=O)c1cccc2c(N(C)C)cccc12)C(=O)N[C@@H](CCCNC(=N)N)C(N)=O [Dansyl-GVR-amide] (Dansyl-Gly-Val-Arg-NH2) | 20 a.u. |
| CN(C)c1cccc2c(S(=O)(=O)NCC(=O)N[C@@H](Cc3c[nH]c4ccccc34)C(=O)N[C@@H](CCCNC(=N)N)C(N)=O)cccc12 [Dansyl-GWR-amide] (Dansyl-Gly-Trp-Arg-NH2) | 34 a.u. |
| CN(C)c1cccc2c(S(=O)(=O)NCC(=O)N[C@@H](Cc3ccc(O)cc3)C(=O)N[C@@H](CCCNC(=N)N)C(N)=O)cccc12 [Dansyl-GYR-amide] (Dansyl-Gly-Tyr-Arg-NH2) | 24 a.u. |
| C[C@H](NC(=O)[C@H](Cc1c[nH]cn1)NS(=O)(=O)c1cccc2c(N(C)C)cccc12)C(=O)N[C@@H](CCCNC(=N)N)C(N)=O [Dansyl-HAR-amide] (Dansyl-His-Ala-Arg-NH2) | −32 a.u. |
